Results: patent publication US12662487B2, “Imidazo[1,2-b][1,2,4]triazol derivatives for use in therapy” (SANOFI, priority 2021, dated 2026)

Key:
[1] = target: T1, Nur77 (Homo sapiens, UniProt P22736); experiment: Activity on HEK - Nur77 modulation (Gal4-DBD luciferase reporter in stable HEK293 cells); format: cell-based; details: HEK293 cells expressing Gal4-DBD-hNur77 and Pfr-Luc; 24 hours with compound; luminescence
T1 construct: the Pfr-Luc (Gal4-responsive luciferase) reporter sits in the same cells
Description: Stable HEK293 cells expressing Gal4-DBD-FL-NOT, -hNur77, -hNOR1 and Pfr-Luc were obtained by limit dilution. HEK cells were grown in 75 cm^2 flask in DMEM high glucose 30-2002™ containing 10% calf serum, hygromycin at a content of 250 μg/ml, doxycycline at a content of 2 μg/ml (to induce expression) and 0.4 mg/ml of penicillin. After one week in culture, cells were harvested by trypsinization then plated onto 96 well dishes at the density of 20 000 cell per well in 75 μl of culture medium. After 24 hours compounds were added (25 μl per well) at different concentration for further 24 hours. The medium was removed and measurement was performed by adding 50 μl of Steadyglo (Promega, E2510) with 50 μl PBS per well for 15 minutes and plates were read using microplate luminescent reader.

[2] = target: T2, Nurr1 (Mus musculus, UniProt Q06219); experiment: Activity on neuroblastoma cell lines - Nurr1 modulation (NBRE8x luciferase reporter in N2A cells); format: cell-based; details: N2A cells stably transfected with NBRE8x luciferase reporter; 24 hours with compound
T2 construct: N2A cells obtained from ATCC were stably transfected with NBRE8x (50-AAGGTCA-30) in tandem coupled with luciferase reporter gene; host or cells: N2A neuroblastoma cells
Description: N2A cells obtained from ATCC were stably transfected with NBRE8x (50-AAGGTCA-30) in tandem coupled with luciferase reporter gene. Each NBRE sequence was separated with 5 nucleotides. N2A were grown in 75 cm^2 flask in DMEM containing 10% calf serum, 4.5 g/L glucose and 0.4 mg/ml geneticin. After one week in culture cells were harvested by trypsinization (0.25%, 30 minutes) then plated onto 96 well dishes at the density of 60 000 cell per well in 75 μl of DMEM without phenol red containing 4.5 g/l glucose, 10% lipid free serum from Hyclone. After 24 hours compounds were added (25 μl/well) at different concentration for further 24 hours. Measurement is performed by adding 100 μl of Steadylite per well for 30 minutes and plates were read using microplate […] reader.

T2 sequence (Q06219 whole entry): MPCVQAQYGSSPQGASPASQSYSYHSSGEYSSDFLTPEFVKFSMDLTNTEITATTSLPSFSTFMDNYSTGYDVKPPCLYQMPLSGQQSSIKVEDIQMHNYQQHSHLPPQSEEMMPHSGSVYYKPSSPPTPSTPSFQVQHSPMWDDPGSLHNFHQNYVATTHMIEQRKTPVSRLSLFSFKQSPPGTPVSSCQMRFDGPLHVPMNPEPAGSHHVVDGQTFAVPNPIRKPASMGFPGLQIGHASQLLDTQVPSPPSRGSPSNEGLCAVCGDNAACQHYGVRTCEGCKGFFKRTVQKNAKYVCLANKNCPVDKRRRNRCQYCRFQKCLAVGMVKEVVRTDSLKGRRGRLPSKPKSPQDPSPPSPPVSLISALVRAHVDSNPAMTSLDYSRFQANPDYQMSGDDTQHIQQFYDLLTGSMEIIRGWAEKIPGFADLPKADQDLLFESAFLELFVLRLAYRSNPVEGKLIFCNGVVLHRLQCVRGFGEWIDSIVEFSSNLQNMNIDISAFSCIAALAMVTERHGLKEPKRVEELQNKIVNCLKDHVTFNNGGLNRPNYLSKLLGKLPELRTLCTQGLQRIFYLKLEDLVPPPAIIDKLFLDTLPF
T1 sequence (P22736 360-598 limits assumed): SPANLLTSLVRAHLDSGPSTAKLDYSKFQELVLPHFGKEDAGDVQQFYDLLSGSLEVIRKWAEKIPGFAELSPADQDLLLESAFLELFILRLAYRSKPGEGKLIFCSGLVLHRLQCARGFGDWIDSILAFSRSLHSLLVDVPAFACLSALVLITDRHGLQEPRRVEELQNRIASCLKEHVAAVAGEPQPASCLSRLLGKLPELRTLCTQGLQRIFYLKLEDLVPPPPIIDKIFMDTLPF

Cn1c(-c2ccc3cc[nH]c3c2)cn2nc(-c3ccc(F)cc3)nc12 [compound (1), 6-[2-(4-fluorophenyl)-4-methyl-imidazo[1,2-b][1,2,4]triazol-5-yl]-1H-indole]
IC50 [1]: 0.03 nM | EC50 [2]: 0.7 nM

Cn1c(-c2ccccc2)cn2nc(-c3cccc(CO)c3)nc12 [compound (3), [3-(4-methyl-5-phenyl-4H-imidazo[1,2-b][1,2,4]triazol-2-yl)phenyl]methanol]
IC50 [1]: 0.9 nM | EC50 [2]: 0.4 nM

Cn1c(-c2cccc(F)c2)cn2nc(-c3ccc(F)cc3)nc12 [compound (2), 5-(3-fluorophenyl)-2-(4-fluorophenyl)-4-methyl-4H-imidazo[1,2-b][1,2,4]triazole]
EC50 [2]: 63 nM
